Measurements taken from patent US20230201134A1, “COMPOSITIONS FOR THE MANAGEMENT OF DEMYELINATING DISORDERS” (priority 2021, published 2023).

What was measured:
Assay type in all cases: in vivo, mouse
C56BL/6 J mice [1] = assay: Grip strength test in demyelinated mice; conditions: forelimb strength, compared to the demyelinated control; Withaferin A 25 mg/kg, BDMC 12.5 mg/kg, combination 37.5 mg/kg
Excerpt: (§1) The Eight-week-old male C56BL/6 J mice were selected and randomized into ten animals in each group (Table 1). Demyelination was induced by 0.3% cuprizone in combination with rapamycin (Hilary H S, Kathryn K B, Daniela C P, Priya N, Wendy B M. A New Model of Cuprizone-Mediated Demyelination/Remyelination. Am Society Neurochem. 2014: 1-16). Briefly, groups undergo demyelination by feeding on a diet containing 0.3% cuprizone mixed into Rodent Diet. These mice received additionally intra-peritoneal rapamycin injections 5 days a week with a vehicle solution.
(§2) After 8 weeks of treatment, all cuprizone feedings and all injections of rapamycin was discontinued. The animals were subjected to behavioral analysis and at end of study, brain samples and serum samples were collected for estimation of Molecular and protein biomarkers by ELISA and Immunohistochemistry of brain was assessed for Demyelination/Remyelination.

C56BL/6 J mice [2] = assay: Motor coordination and learning: Rotarod test in demyelinated mice; conditions: Rotarod 16 rpm, 60 s, Withaferin A 25 mg/kg, BDMC 12.5 mg/kg, combination 25 + 12.5 mg/kg, demyelinated control 3/10
Excerpt: as §1, §2
Motor coordination and balance were evaluated in a Rotarod apparatus which consists of a motor-driven rotating rod whose speed can be adjusted. All mice were evaluated on the Rotarod three times a day for two consecutive days, with the rotation set at 15 to 16 revolutions per minute (rpm) (Rozas, G.; Guerra, M. J.; Labandeira Garcia, J. L. An automated Rotarod method for quantitative drug-free evaluation of overall motor deficits in rat models of Parkinsonism. Brain Res. Protoc. 1997, 2, 75-84). To test the performance, the mice were placed on the rotating cylinder at an angle of 45 with an initial rotation speed of 16 rpm, and were allowed to run for 60 s. The trial was repeated after 5-10 min. The falls and flips (when the animal hangs on to the cylinder and continues all the way around) were recorded within 60 s of each trial.

[3] = system: Chondroitin Sulfate Proteoglycan 4 (NG2); assay: NG2 in brain tissue homogenate (ELISA), cuprizone/rapamycin demyelination model; conditions: compared to the demyelination control, Withaferin A 25 mg/kg, BDMC 12.5 mg/kg, combination 37.5 mg/kg, orally once per day
Excerpt: as §1, §2
(§3) Withaferin A or BDMC were administered orally once per day to mouse, for 8 weeks after treatment with Cuprizone and Rapamycin (Table 1). The dose response of BDMC or Withaferin was assessed by measuring concentration of biomarkers, Myelin Oligodendrocyte Glycoprotein (MOG) (FIG. 1) Brain Derived Neurotrophic Factor (BDNF) (FIG. 2), in serum. […]

[4] = system: Platelet Derived Growth Factor Receptor alpha (PDGFRa); assay: PDGFRa in brain tissue homogenate (ELISA), cuprizone/rapamycin demyelination model; conditions: compared to the demyelination control, Withaferin A 25 mg/kg, BDMC 12.5 mg/kg, combination 37.5 mg/kg, orally once per day
Excerpt: as §1, §2, §3

[5] = system: Amphoterin-induced protein 3 (AMIGO3); assay: AMIGO3 in brain tissue homogenate (ELISA), cuprizone/rapamycin demyelination model; conditions: compared to the demyelination control, Withaferin A 25 mg/kg, BDMC 12.5 mg/kg, combination 37.5 mg/kg, orally once per day
Excerpt: as §1, §2, §3

[6] = system: Myelin basic protein (MBP); assay: Myelin basic protein in brain tissue homogenate (ELISA), cuprizone/rapamycin demyelination model; conditions: compared to the demyelination control, Withaferin A 25 mg/kg, BDMC 12.5 mg/kg, combination 37.5 mg/kg, orally once per day
Excerpt: as §1, §2, §3

[7] = system: Transient receptor potential ankyrin 1 (TRPA1); assay: TRPA1 in brain tissue homogenate (ELISA), cuprizone/rapamycin demyelination model; conditions: compared to the demyelination control, Withaferin A 25 mg/kg, BDMC 12.5 mg/kg, combination 37.5 mg/kg, orally once per day
Excerpt: as §1, §2, §3

[8] = system: CXC chemokine receptor 2 (CXCR2); assay: CXCR2 in brain tissue homogenate (ELISA), cuprizone/rapamycin demyelination model; conditions: compared to the demyelination control, Withaferin A 25 mg/kg, BDMC 12.5 mg/kg, combination 37.5 mg/kg, orally once per day
Excerpt: as §1, §2, §3

[9] = system: Myelin Oligodendrocyte Glycoprotein (MOG), Brain Derived Neurotrophic Factor (BDNF); assay: Dose response study, MOG and BDNF in serum; conditions: orally once per day for 8 weeks; from serum MOG and BDNF dose response
Excerpt: as §1
Withaferin A or BDMC were administered orally once per day to mouse, for 8 weeks after treatment with Cuprizone and Rapamycin (Table 1). The dose response of BDMC or Withaferin was assessed by measuring concentration of biomarkers, Myelin Oligodendrocyte Glycoprotein (MOG) (FIG. 1) Brain Derived Neurotrophic Factor (BDNF) (FIG. 2), in serum.

C56BL/6 J mice [10] = assay: Locomotor activity test (Actophotometer) in demyelinated mice; conditions: 5 minutes, p.o., Mean ± S.E., 10 animals; for locomotor activity score, 3 hr after treatment: demyelinated control 148 ± 14.48; for locomotor activity score, 2 hr after treatment: demyelinated control 158 ± 14.02; for locomotor activity score, 1 hr after treatment: demyelinated control 170 ± 20.18
Excerpt: as §1, §2
Actophotometer (Activity cage) is designed to study the spontaneous or induced or locomotor activity in small animals like mice or rats. In this apparatus, the Optical sensors and emitters are present to record the horizontal movements of the animals on a six-digit digital counter display. Each animal was placed in Actophotometer for 5 minutes and basal activity score was recorded for all animals. Each animal was treated with respective drugs and activity score was recorded after 1, 2, and 3 hours.

C-reactive Protein (CRP) = assay: C-reactive protein (ELISA), cuprizone/rapamycin demyelination model; conditions: compared to the demyelination control, Withaferin A 25 mg/kg, BDMC 12.5 mg/kg, combination 37.5 mg/kg, orally once per day
Excerpt: as §1, §2, §3

C56BL/6 J mice [11] = assay: Immunohistochemistry of brain for demyelination/remyelination; conditions: GST-π staining; Withaferin A 25 mg/kg, BDMC 12.5 mg/kg, combination 37.5 mg/kg; versus demyelinated control
Excerpt: as §1, §2

| Compound | improvement in the grip strength (C56BL/6 J mice [1]) [%] | No. of mice which stayed on rota rod/total no. of animals (C56BL/6 J mice [2]) | upregulation of NG2 [3] [%] | upregulation of PDGFRa [4] [%] | down regulation of AMIGO3 inflammatory marker [5] [%] | proliferation of Myelin basic protein (MBP) [6] [%] | down regulation of TRPA1 inflammatory marker [7] [%] | down regulation of CXC chemokine receptor 2 (CXCR2) inflammatory marker [8] [%] | optimum effective dose [9] [mg/kg] | locomotor activity score, 3 hr after treatment (C56BL/6 J mice [10]) | locomotor activity score, 2 hr after treatment (C56BL/6 J mice [10]) | locomotor activity score, 1 hr after treatment (C56BL/6 J mice [10]) | down regulation of C-reactive Protein (CRP) inflammatory marker (C-reactive Protein (CRP)) [%] | No. of mice which stayed on rota rod/total no. of animals (C56BL/6 J mice [2]; listed as Withaferin) | immunohistochemistry findings of cerebellar cortical layer (C56BL/6 J mice [11]) |
| --- | --- | --- | --- | --- | --- | --- | --- | --- | --- | --- | --- | --- | --- | --- | --- |
| O=C(/C=C/c1ccc(O)cc1)CC(=O)/C=C/c1ccc(O)cc1 [BDMC, Bisdemethoxycurcumin] | 37.5 | 5/10 | 90 | 73 | 27 | 122 | 17 | 35 | 12.5 | 190 ± 7.35 | 200 ± 10.70 | 220 ± 21.11 | 35 |  |  |
| CC1=C(CO)C(=O)O[C@@H]([C@@H](C)[C@H]2CC[C@H]3[C@@H]4C[C@H]5O[C@]56[C@@H](O)C=CC(=O)[C@]6(C)[C@H]4CC[C@]23C)C1 [Withaferin A] | 25 | 5 out of 10 | 30 | 22 | 36 | 64 | 43 | 32 | 25 | 200 ± 9.01 | 210 ± 17.23 | 240 ± 17.22 | 32 | 5/10 | few degenerated Purkinje cells with pyknotic cell bodies and inconspicuous dendritic processes |
